The values below come from patent US20260184693A1, “INHIBITORS OF SOLUTE CARRIER FAMILY 6A MEMBER 19 (SLC6A19) AND METHODS OF USE THEREOF” (Maze Therapeutics, Inc., priority 2022, published 2026).

This assay has as its target T1, human SLC6A19 (Homo sapiens, UniProt Q695T7).
T1 construct: expressed in transfected cells
T1 sequence (Q695T7 1-634): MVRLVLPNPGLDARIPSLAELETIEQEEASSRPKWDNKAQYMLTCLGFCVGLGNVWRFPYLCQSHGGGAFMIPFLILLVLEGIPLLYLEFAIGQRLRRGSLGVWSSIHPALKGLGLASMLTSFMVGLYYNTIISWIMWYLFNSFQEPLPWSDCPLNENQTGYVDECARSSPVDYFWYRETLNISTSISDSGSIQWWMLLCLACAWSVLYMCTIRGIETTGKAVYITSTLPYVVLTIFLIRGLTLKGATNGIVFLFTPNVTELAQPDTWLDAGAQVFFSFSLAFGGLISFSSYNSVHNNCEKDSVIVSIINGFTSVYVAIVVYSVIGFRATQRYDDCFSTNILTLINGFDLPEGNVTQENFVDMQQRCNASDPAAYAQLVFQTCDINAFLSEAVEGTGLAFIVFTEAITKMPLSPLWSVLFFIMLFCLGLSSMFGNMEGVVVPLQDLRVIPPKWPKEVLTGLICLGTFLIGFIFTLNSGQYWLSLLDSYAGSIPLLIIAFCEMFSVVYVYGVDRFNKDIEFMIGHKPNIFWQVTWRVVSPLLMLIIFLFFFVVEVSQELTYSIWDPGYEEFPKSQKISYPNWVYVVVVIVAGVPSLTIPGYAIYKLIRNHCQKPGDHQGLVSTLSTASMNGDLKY
T1 sequence (Q9HBJ8 15-222 partner): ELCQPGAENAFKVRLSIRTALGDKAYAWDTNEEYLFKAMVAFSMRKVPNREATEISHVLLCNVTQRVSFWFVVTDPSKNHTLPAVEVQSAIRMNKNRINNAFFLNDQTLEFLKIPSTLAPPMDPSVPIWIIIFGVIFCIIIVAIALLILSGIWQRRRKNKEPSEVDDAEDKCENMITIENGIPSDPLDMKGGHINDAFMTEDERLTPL
The assay can be described thus: Example B-1: L-[3H]leucine uptake, liquid scintillation, in CHO cells with doxycycline-inducible expression of human SLC6A19 and TMEM27. Format: cell-based. The following applies: read-out: SLC6A19_Radioligand Uptake Assay IC50. The procedure:
CHO cells with doxycycline-inducible expression of human SLC6A19 and TMEM27 were maintained in T150 cell culture treated flasks using cell culture media, which consisted of 1×DMEM/F12 (Gibco, 11330057), 10% Tet System-Approved FBS (Gibco, A4736401), 100 U/mL Penicillin-Streptomycin (Gibco, 15140122), 1×GlutaMAX™ Supplement (Gibco, 35050061), 1 mM Sodium Pyruvate (Gibco, 11360070), 1.1 mg/mL Sodium Bicarbonate (Gibco, 25080094), 5 μg/mL Blasticidin (InvivoGen, ant-bl-1), 150 μg/mL Hygromycin B Gold (InvivoGen, ant-hg-5), and 500 μg/mL G418 (Sigma-Aldrich, G8168-100 mL). In preparation for the assay, this media was aspirated and 5 mL of TryμLE™ Express Enzyme (Gibco, 12605010) was added to each flask to initiate cell dissociation. The flasks were then incubated (humidified, 37° C. with 5% CO2) for 2 minutes. After incubation, 10 mL of pre-warmed cell culture media was added to each flask. The cell suspension was collected and centrifuged for 5 minutes at 200xg.
The supernatant was aspirated and the pellet was resuspended in 5 mL pre-warmed cell culture media. The resuspended cells were counted using the Countess Cell Counting Chamber (Invitrogen) and the cell concentration of the suspension was readjusted to 1 million live cells/mL using pre-warmed cell culture media. 25 uL/well (25,000 cells/well) of readjusted cell suspension was dispensed into Poly-D-Lysine 384-well white/clear plates (Corning, 354660) using a MultiDrop Combi (Thermo Electron Corp). To induce expression of Human SLC6A19 and TMEM27, 25 uL/well of cell culture media containing 2 μg/mL doxycycline was added to the first 23 columns of each plate resulting in a final concentration of […] doxycycline. 25 μL/well of cell culture media was added to the last column of each plate, to act as negative control wells for Human SLC6A19 and TMEM27 expression. Assay plates were then incubated (humidified, 37° C. with 5% CO2) for 18 hours. After incubation, the media was aspirated and the wells were washed 4 times with pre-warmed HBSS (Sigma-Aldrich, H8264-1L) using an Apricot S-Pipette S2 (Apricot Designs), such that 5 uL/well HBSS was remaining at the end of each wash. […] At this step, the final in-well DMSO concentration in the assay plate is 0.5%. All compounds were plated in a duplicate 8-point dilution series that consisted of 3-fold dilutions. […] Afterwards, 15 uL/well of 3.2 mM hot:cold leucine solution (1:15000 ratio of L-[3,4,5-3H(N)] Leucine (Perkin Elmer, NET460001MC) to L-Leucine (Sigma-Aldrich, L8912-25G) diluted with HBSS (Sigma-Aldrich, H8264-1L)) was added using the Viaflo 384 (Integra), for a final concentration of 1.6 mM hot:cold leucine solution. The plates were then incubated (humidified, 37° C. with 5% CO2) for 20 minutes to conduct the uptake reaction. Immediately after the incubation, the plates were washed 4 times with HBSS (Sigma-Aldrich, H8264-1L) using the ELx405 Microplate Washer (Biotek) to terminate the uptake reaction. After the washes, 50 uL/well Ultima Gold Scintillation Cocktail (Perkin Elmer, 6013326) was added to each well using the Viaflo 384 (Integra). The plates were then incubated (humidified, 37° C. with 5% CO2) on a plate shaker at 200 rpm for 2 hours. After incubation, the plates were removed from the shaker and kept at room temperature for 15 minutes.
Liquid scintillation analysis was performed using the MicroBeta2 Microplate Counter (Perkin Elmer). Activity (%) was derived by normalizing the average of positive control compound treated wells to 0% and the average of DMSO (negative control) wells to 100%. Collaborative Drug Discovery software was used for graphing data.

Consider `CC(=O)N1C[C@H](N(C)C(=O)NCc2cc3cc(Cl)ccc3[nH]2)CC[C@@H]1C` (single isomer, unassigned) [Compound 192, 1-((3R,6S or 3S,6R)-1-acetyl-6-methylpiperidin-3-yl)-3-((5-chloro-1H-indol-2-yl)methyl)-1-methylurea], for which the IC50 amounted to 558 nM.
Consider `CN(C(=O)NCc1cc2cc(Cl)ccc2[nH]1)[C@@H]1CCCN(C(=O)c2cc(F)ccn2)C1` [Compound 111, (R)-3-((5-chloro-1H-indol-2-yl)methyl)-1-(1-(4-fluoropicolinoyl)piperidin-3-yl)-1-methylurea], for which the IC50 stood at 1320 nM.
With `CN(C(=O)NCc1cc2cc(Cl)ccc2[nH]1)[C@@H]1CCCN(C(=O)C2CCOC2)C1` (stereo partly drawn) [Compound 112, 3-((5-chloro-1H-indol-2-yl)methyl)-1-methyl-1-((3R)-1-(tetrahydrofuran-3-carbonyl)piperidin-3-yl)urea] the figure was 367 nM; with `CN(C(=O)NCc1cc2cc(Cl)ccc2[nH]1)[C@@H]1CCCN(C(=O)c2nn(C)cc2F)C1` [Compound 113, (R)-3-((5-chloro-1H-indol-2-yl)methyl)-1-(1-(4-fluoro-1-methyl-1H-pyrazole-3-carbonyl)piperidin-3-yl)-1-methylurea], 494 nM.
With `CN(C(=O)NCc1cc2cc(Cl)ccc2[nH]1)[C@@H]1CCCN(C(=O)c2ccc(F)cn2)C1` [Compound 114, (R)-3-((5-chloro-1H-indol-2-yl)methyl)-1-(1-(5-fluoropicolinoyl)piperidin-3-yl)-1-methylurea] the figure was 847 nM.
The figure for `CN(C(=O)NCc1cc2cc(Cl)ccc2[nH]1)[C@@H]1CCCN(C(=O)c2cc(F)n(C)n2)C1` [Compound 115, (R)-3-((5-chloro-1H-indol-2-yl)methyl)-1-(1-(5-fluoro-1-methyl-1H-pyrazole-3-carbonyl)piperidin-3-yl)-1-methylurea] is 688 nM; for `CN(C(=O)NCc1cc2cc(Cl)ccc2[nH]1)[C@@H]1CCCN(C(=O)C2CCO2)C1` (stereo partly drawn) [Compound 116, 3-((5-chloro-1H-indol-2-yl)methyl)-1-methyl-1-((3R)-1-(oxetane-2-carbonyl)piperidin-3-yl)urea] it is 515 nM; for `CC1CC(C(=O)N2CCC[C@@H](N(C)C(=O)NCc3cc4cc(Cl)ccc4[nH]3)C2)C1` (stereo partly drawn) [Compound 117, (R)-3-((5-chloro-1H-indol-2-yl)methyl)-1-methyl-1-(1-(3-methylcyclobutane-1-carbonyl)piperidin-3-yl)urea] it is 608 nM.
Take `CN(C(=O)NCc1cc2cc(Cl)ccc2[nH]1)[C@@H]1CCCN(C(=O)C2(C)CCC2)C1` [Compound 118, (R)-3-((5-chloro-1H-indol-2-yl)methyl)-1-methyl-1-(1-(1-methylcyclobutane-1-carbonyl)piperidin-3-yl)urea]: the IC50 is 1620 nM.
As to `CN(C(=O)NCc1cc2cc(Cl)ccc2[nH]1)[C@@H]1CCCN(C(=O)Cn2cc(CCN)nn2)C1` [Compound 134, (R)-1-(1-(2-(4-(2-aminoethyl)-1H-1,2,3-triazol-1-yl)acetyl)piperidin-3-yl)-3-((5-chloro-1H-indol-2-yl)methyl)-1-methylurea], the 50% inhibitory concentration (IC50) was determined as 3770 nM.
For `CN(C(=O)NCc1cc2cc(Cl)ccc2[nH]1)[C@@H]1CCCN(C(=O)Cc2cnco2)C1` [Compound 205, (R)-3-((5-chloro-1H-indol-2-yl)methyl)-1-methyl-1-(1-(2-(oxazol-5-yl)acetyl)piperidin-3-yl)urea], the 50% inhibitory concentration (IC50) turned out to be 444 nM.
With `CC(=O)N1CCC[C@@H](N(C)C(=O)NCCc2ccc(Cl)c(-c3cc4ccccc4[nH]3)c2)C1` [Compound 206, (R)-1-(1-acetylpiperidin-3-yl)-3-(4-chloro-3-(1H-indol-2-yl)phenethyl)-1-methylurea] the figure was 441 nM; with `CC(=O)N1CCC[C@@H](N(C)C(=O)NCCc2cc(-c3cc4ccccc4[nH]3)c(Cl)cc2Cl)C1` [Compound 207, (R)-1-(1-acetylpiperidin-3-yl)-3-(2,4-dichloro-5-(1H-indol-2-yl)phenethyl)-1-methylurea], 715 nM; with `CN(C)C(=O)N1CCC[C@@H](N(C)C(=O)NCc2cc3cc(Cl)ccc3[nH]2)C1` [Compound 208, (R)-3-(3-((5-chloro-1H-indol-2-yl)methyl)-1-methylureido)-N,N-dimethylpiperidine-1-carboxamide], 418 nM.
With `CCNC(=O)N1CCC[C@@H](N(C)C(=O)NCc2cc3cc(Cl)ccc3[nH]2)C1` [Compound 209, (R)-3-(3-((5-chloro-1H-indol-2-yl)methyl)-1-methylureido)-N-ethylpiperidine-1-carboxamide], the IC50 was determined as 126 nM.
With `CN(C(=O)NCc1cc2cc(Cl)ccc2[nH]1)[C@@H]1CCCN(C(=O)NCC(F)(F)F)C1` [Compound 210, (R)-3-(3-((5-chloro-1H-indol-2-yl)methyl)-1-methylureido)-N-(2,2,2-trifluoroethyl)piperidine-1-carboxamide] the figure was 892 nM; with `CN(C(=O)NCc1cc2cc(Cl)ccc2[nH]1)[C@@H]1CCCN(C(=O)NC2CCC2)C1` [Compound 211, (R)-3-(3-((5-chloro-1H-indol-2-yl)methyl)-1-methylureido)-N-cyclobutylpiperidine-1-carboxamide], 1360 nM.
Regarding `CC(=O)N1CCC[C@@H](N(C)C(=O)NCc2cc3cc(C(F)(F)F)ccc3[nH]2)C1` [Compound 212, (R)-1-(1-acetylpiperidin-3-yl)-1-methyl-3-((5-(trifluoromethyl)-1H-indol-2-yl)methyl)urea], the IC50 came out at 259 nM.
As for `CC(C)NC(=O)N1CCC[C@@H](N(C)C(=O)NCc2cc3cc(Cl)ccc3[nH]2)C1` [Compound 213, (R)-3-(3-((5-chloro-1H-indol-2-yl)methyl)-1-methylureido)-N-isopropylpiperidine-1-carboxamide], the IC50 amounted to 804 nM.
The figure for `CC(=O)N1CCC[C@@H](N(C)C(=O)NCc2cc3ccc(C)cc3[nH]2)C1` [Compound 214, (R)-1-(1-acetylpiperidin-3-yl)-1-methyl-3-((6-methyl-1H-indol-2-yl)methyl)urea] is 1290 nM.
The figure for `CN(C(=O)NCc1cc2cc(Cl)ccc2[nH]1)[C@@H]1CCCN(C(=O)CCO)C1` [Compound 215, (R)-3-((5-chloro-1H-indol-2-yl)methyl)-1-(1-(3-hydroxypropanoyl)piperidin-3-yl)-1-methylurea] is 637 nM.
